This experiment has as its target human P2X3 receptor (Homo sapiens (Human), UniProt P56373). Description: Evaluation of human P2X3 receptor inhibitory activity (Test Example 1-1, FDSS 3000, 96-well, 50 nM ATP). Type of experiment: cell-based. Particulars: human P2X3 receptor in C6BU-1 cells; Test Example 1-1 (compounds I-001 to I-300). On the procedure:
Stably expressing cell line (C6BU-1 cell transfected with human P2X3 receptor gene (GenBank accession number Y07683) was used. The cells were seeded in a 96-well microtiter plate at a concentration of 8000 cells/well and cultured in the medium (7.0% fetal bovine serum, 7.0% horse serum, 1% antibiotic and antifungal in DMEM) for one day at 37° C. under 5% carbon dioxide atmosphere. The medium was replaced with 4 μM Fluo-3-AM solution (20 mM HEPES, 137 mM NaCl, 5.27 mM KCl, 0.9 mM MgCl2, 1.26 mM CaCl2, 5.6 mM D-glucose, 2.5 mM probenecid, 1% BSA, and 0.08% Pluronic F-127, pH 7.5) and incubated at 37° C. under 5% dioxide carbon atmosphere for one hour. The plate was washed with washing buffer (20 mM HEPES, 137 mM NaCl, 5.27 mM KCl, 0.9 mM MgCl2, 1.26 mM CaCl2, 5.6 mM D-glucose, 2.5 mM probenecid, pH7.5), and each well was added with 40 μL of this buffer. The plate was placed in High-Throughput Screening System. FDSS 3000 (Hamamatsu Photonics K.K.). Measurement of fluorescence intensity by FDSS 3000 was started, and 40 μL of DMSO solutions containing different concentrations of the test compound as prepared by dilution with dilution buffer (20 mM HEPES, 137 mM NaCl, 5.27 mM KCl, 0.9 mM MgCl2, 1.26 mM CaCl2, 5.68 mM D-glucose, 2.5 mM probenecid, 0.1% Pluronic F-127, pH7.5) were dispensed to each well through the built-in automatic dispenser. Five minutes after, 50 nM ATP solution (50 μL) prepared by dilution with the dilution buffer was dispensed through the built-in automatic dispenser, and the measurement of fluorescence intensity was continued for 4 min. For each well, the specific maximum fluorescence intensity was calculated as the ratio of the maximum fluorescence intensity after addition of the ATP solution to the fluorescence intensity at the starting of the measurement. The 50% inhibitory concentration (IC50) was calculated under the assumption that the specific maximum fluorescence intensity without test compound is 0% inhibition and that the specific maximum fluorescence intensity when the dilution buffer was added in place of ATP solution is 100% inhibition, to evaluate the inhibitory activity of the test compound. FDSS software (Hamamatsu Photonics K.K.) was used for calculation of the specific maximum fluorescence intensity. IC50 was calculated using Microsoft Excel (Microsoft Corporation) and XLfit (idbs Ltd.)
The data of the compounds I-001 to I-300 are the results by the method mentioned in Test Example 1-1, and the data of the compounds I-301 to I-483 are the results by the method mentioned in Test Example 1-2.

The record followed here is patent US9550763B2, “Heterocyclic ring and carbocyclic derivative” (Shionogi & Co., Ltd., priority 2012, dated 2017).

What is called IC50 is the midpoint of a concentration-inhibition curve. Higher therefore signals weaker potency in that assay.

Chain of human P2X3 receptor (P56373 whole entry): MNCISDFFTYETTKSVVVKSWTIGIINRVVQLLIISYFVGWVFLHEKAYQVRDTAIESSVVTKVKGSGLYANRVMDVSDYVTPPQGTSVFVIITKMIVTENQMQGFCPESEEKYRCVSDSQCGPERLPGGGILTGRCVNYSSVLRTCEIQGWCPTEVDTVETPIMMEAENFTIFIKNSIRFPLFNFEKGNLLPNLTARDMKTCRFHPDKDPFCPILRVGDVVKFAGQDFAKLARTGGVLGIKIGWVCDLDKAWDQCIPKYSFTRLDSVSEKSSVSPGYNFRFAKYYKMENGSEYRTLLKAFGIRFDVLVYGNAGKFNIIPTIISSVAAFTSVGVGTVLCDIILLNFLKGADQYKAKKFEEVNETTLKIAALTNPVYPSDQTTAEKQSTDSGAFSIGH

With `CCn1c(=O)cc(Nc2ccc(Oc3cncc(C(N)=O)c3)cc2)n(Cc2ccc(Cl)cc2)c1=O` [Compound I-001], the IC50 was found to be 11 nM.

In turn, `CCC(=O)Nc1c[nH]/c(=N\c2ccc(Oc3cccc(C#N)n3)cc2)n(Cc2ccc(Cl)cc2)c1=O` [Compound I-006] showed an IC50 of 5 nM. This IC50 is about 2.2-fold lower than that of the molecule before. The molecule `COC(=O)Nc1c[nH]/c(=N\c2ccc(Oc3cccc(C(N)=O)n3)cc2)n(Cc2ccc(Cl)cc2)c1=O` [Compound I-007] came in with an IC50 of 23 nM.

The molecule `CCn1c(=O)cc(Nc2ccc(Oc3cccc(C(=O)OC)c3)cc2)n(Cc2ccc(Cl)cc2)c1=O` [Compound I-008, 1-(4-chlorobenzyl)-3-ethyl-6-[4-(3-methoxycarbonylphenoxy)phenylamino]pyrimidin-2,4(1H,3H)-dione] gave an IC50 of 38 nM. The molecule `CCn1c(=O)cc(Nc2ccc(Oc3cccc(C#N)n3)cc2)n(Cc2ccc(Cl)cc2)c1=O` [Compound I-009] had an IC50 of 5 nM. This IC50 lies about 7.6-fold lower than the previous one.

Molecule `CCOC(=O)c1cnc(Oc2ccc(Nc3cc(=O)n(CC)c(=O)n3Cc3ccc(Cl)cc3)cc2)s1` [Compound I-010] returned an IC50 of 4 nM.

Take `CCn1c(=O)cc(Nc2ccc(Oc3cccc(C#N)n3)c(F)c2)n(Cc2ccc(Cl)cc2)c1=O` [Compound I-011]: it took 2 nM to reach half-maximal inhibition (IC50). Then `CCn1c(=O)cc(Nc2ccc(Oc3cccc(C#N)n3)c(C)c2)n(Cc2ccc(Cl)cc2)c1=O` [Compound I-012], with 2 nM.

`CCn1c(=O)cc(Nc2ccc(Oc3ncc(C(=O)O)s3)cc2)n(Cc2ccc(Cl)cc2)c1=O` [Compound I-013]: the midpoint of inhibition, the IC50, lay at 2 nM. Then `CCOC(=O)c1cn(Cc2ccc(Cl)cc2)c(Nc2ccc3oc(CC)c(C)c3c2)nc1=O` [Compound I-015], with 160 nM. Next, `CCc1oc2ccc(Nc3nc(=O)c(C(=O)O)cn3Cc3ccc(Cl)cc3)cc2c1C` [Compound I-017]: 401 nM. With `CCOC(=O)c1c[nH]/c(=N\c2ccc(Oc3cccc(F)n3)cc2)n(Cc2ccc(Cl)cc2)c1=O` [Compound I-018], the IC50 was found to be 13 nM. Turning to `CCc1oc2ccc(Nc3ncc(C(=O)NC4CCOCC4)c(=O)n3Cc3ccc(Cl)cc3)cc2c1C` [Compound I-019, 1-(4-chlorobenzyl)-2-(2-ethyl-3-methylbenzofuran-5-ylamino)-5-(tetrahydro-2H-pyran-4-ylcarbamoyl)pyrimidin-6(1H)-one], the IC50 was 135 nM. Next, `CCc1oc2ccc(Nc3ncc(C(N)=O)c(=O)n3Cc3ccc(Cl)cc3)cc2c1C` [Compound I-020]: 50 nM; `CCc1oc2ccc(Nc3nc(=O)c(C(=O)NC4CCOCC4)cn3Cc3ccc(Cl)cc3)cc2c1C` [Compound I-021]: 20 nM. `CCc1oc2ccc(Nc3nc(=O)c(C(=O)NC(C)C)cn3Cc3ccc(Cl)cc3)cc2c1C` [Compound I-022]: it took 94 nM to reach half-maximal inhibition (IC50). This IC50 is about 4.7-fold higher than that of the molecule before.

For `CCn1c(=O)cc(Nc2ccc(Oc3cccc(C(=O)O)c3)cc2)n(Cc2ccc(Cl)cc2)c1=O` [Compound I-023, 1-(4-chlorobenzyl)-3-ethyl-6-[4-(3-hydroxycarbonylphenoxy)phenylamino]pyrimidin-2,4(1H,3H)-dione], the IC50 was determined as 3 nM. In turn, `CCn1c(=O)cc(Nc2ccc(Oc3cccc(C(N)=O)c3)cc2)n(Cc2ccc(Cl)cc2)c1=O` [Compound I-024] displayed an IC50 of 14 nM. Then `CCn1c(=O)cc(Nc2ccc(Oc3cccc(C(N)=O)n3)cc2)n(Cc2ccc(Cl)cc2)c1=O` [Compound I-025], with 6 nM. `CCn1c(=O)cc(Nc2ccc(Oc3cccc(C(N)=O)n3)c(F)c2)n(Cc2ccc(Cl)cc2)c1=O` [Compound I-026] gave an IC50 of 3 nM. Compared with the last molecule, the IC50 is about 2-fold lower.

Regarding `CCn1c(=O)cc(Nc2ccc(Oc3cccc(C(N)=O)n3)c(C)c2)n(Cc2ccc(Cl)cc2)c1=O` [Compound I-027], the IC50 turned out to be 4 nM. Take `CCn1c(=O)cc(Nc2ccc(Oc3cccc(C(=O)O)n3)c(C)c2)n(Cc2ccc(Cl)cc2)c1=O` [Compound I-028]: the IC50 turned out to be 1 nM.

With `O=C(O)c1c[nH]/c(=N\c2ccc(Oc3cccc(F)n3)cc2)n(Cc2ccc(Cl)cc2)c1=O` [Compound I-029], the IC50 turned out to be 236 nM. Next, `CCc1oc2ccc(/N=c3\[nH]cc(NC(=O)C4CCOCC4)c(=O)n3Cc3ccc(Cl)cc3)cc2c1C` [Compound I-030, 1-(4-chlorobenzyl)-2-(2-ethyl-3-methylbenzofuran-5-ylamino)-5-(tetrahydro-2H-pyran-4-ylcarbonylamino)pyrimidin-6(1H)-one]: 5 nM; `CCc1oc2ccc(Nc3nc(=O)c(C(=O)NC(CC)CC)cn3Cc3ccc(Cl)cc3)cc2c1C` [Compound I-031]: 54 nM; `CCc1oc2ccc(Nc3ncc(C(=O)NCCO)c(=O)n3Cc3ccc(Cl)cc3)cc2c1C` [Compound I-032]: 34 nM. `CCn1c(=O)cc(Nc2ccc(Oc3cccc(C(=O)O)n3)c(F)c2)n(Cc2ccc(Cl)cc2)c1=O` [Compound I-033] registered an IC50 of 1 nM. Compared with the last molecule, the IC50 is about 34-fold lower. Next, `NC(=O)c1c[nH]/c(=N\c2ccc(Oc3cccc(F)n3)cc2)n(Cc2ccc(Cl)cc2)c1=O` [Compound I-034]: 14 nM. Next, `CCOC(=O)c1sc(Oc2ccc(Nc3cc(=O)n(CC)c(=O)n3Cc3ccc(Cl)cc3)cc2)nc1C` [Compound I-036]: 22 nM; `O=c1c(CO)c[nH]/c(=N\c2ccc(Oc3cccc(F)n3)cc2)n1Cc1ccc(Cl)cc1` [Compound I-037]: 34 nM; `NC(=O)c1cccc(Oc2ccc(Nc3ncc(NC(=O)C4CCOCC4)c(=O)n3Cc3ccc(Cl)cc3)cc2)n1` [Compound I-038]: 2 nM. Then `CCn1c(=O)cc(Nc2ccc(Oc3ncc(C(N)=O)s3)cc2)n(Cc2ccc(Cl)cc2)c1=O` [Compound I-039], with under 4 nM; and `CCn1c(=O)cc(Nc2ccc(Oc3cccc(C(=O)O)n3)cc2)n(Cc2ccc(Cl)cc2)c1=O` [Compound I-040], with 3 nM. Take `CCn1c(=O)cc(Nc2ccc(Oc3nc(C)c(C(=O)O)s3)cc2)n(Cc2ccc(Cl)cc2)c1=O` [Compound I-041]: the IC50 was 3 nM. Then `O=C(NC1CCOCC1)c1c[nH]/c(=N\c2ccc(Oc3cccc(F)n3)cc2)n(Cc2ccc(Cl)cc2)c1=O` [Compound I-042], with 14 nM; and `CCOC(=O)c1cnc(Nc2ccc(Oc3cccc(C(N)=O)n3)cc2)n(Cc2ccc(Cl)cc2)c1=O` [Compound I-043], with 7 nM; and `CCOC(=O)c1cccc(Oc2ccc(Nc3cc(=O)n(CC)c(=O)n3Cc3ccc(Cl)cc3)nc2)c1` [Compound I-044], with 103 nM. `CCc1oc2ccc(/N=c3\[nH]cc(C=O)c(=O)n3Cc3ccc(Cl)cc3)cc2c1C` [Compound I-045] yielded an IC50 of 226 nM. In turn, `CCc1oc2ccc(/N=c3\[nH]cc(CO)c(=O)n3Cc3ccc(Cl)cc3)cc2c1C` [Compound I-046] came in with an IC50 of 278 nM. Then `CCc1oc2ccc(/N=c3\[nH]cc(NS(=O)(=O)C4CCOCC4)c(=O)n3Cc3ccc(Cl)cc3)cc2c1C` [Compound I-047], with 18 nM. Next, `CCc1oc2ccc(/N=c3\[nH]cc(C=NN4CCOCC4)c(=O)n3Cc3ccc(Cl)cc3)cc2c1C` [Compound I-048]: 22 nM; `CCc1oc2ccc(/N=c3\[nH]cc(CNC4CCOCC4)c(=O)n3Cc3ccc(Cl)cc3)cc2c1C` [Compound I-049]: 225 nM; `O=C(O)c1cccc(Oc2ccc(Nc3ncc(C(=O)O)c(=O)n3Cc3ccc(Cl)cc3)cc2)n1` [Compound I-050]: 67 nM. The molecule `CCOC(=O)c1cnc(Nc2ccc(Oc3cccc(C(=O)OC)n3)cc2)n(Cc2ccc(Cl)cc2)c1=O` [Compound I-051] registered an IC50 of 27 nM. Then `CCn1c(=O)cc(Nc2ccc(Oc3ccc(C(=O)OC)cc3)cn2)n(Cc2ccc(Cl)cc2)c1=O` [Compound I-052], with 21 nM.

In the case of `CCn1c(=O)cc(Nc2ccc(Oc3cccc(C(=O)O)c3)cn2)n(Cc2ccc(Cl)cc2)c1=O` [Compound I-053], 20 nM corresponded to half-maximal inhibition (IC50). Next, `CCn1c(=O)cc(Nc2ccc(Oc3ccc(C(=O)O)cc3)cn2)n(Cc2ccc(Cl)cc2)c1=O` [Compound I-054]: 43 nM; `CCOC(=O)c1cnc(Nc2ccc(Oc3cccc(C(=O)O)n3)cc2)n(Cc2ccc(Cl)cc2)c1=O` [Compound I-055]: 2 nM; `CCOC(=O)c1cnc(Oc2ccc(Nc3ncc(C(=O)OCC)c(=O)n3Cc3ccc(Cl)cc3)cc2)s1` [Compound I-056]: 13 nM.
